Experimental data taken from US20160102093A1, “CO-PROCESSING METHOD AND FORMULATION FOR HIV ATTACHMENT INHIBITOR PRODRUG COMPOUND AND EXCIPIENTS” (BRISTOL-MYERS SQUIBB COMPANY, priority 2011, published 2016).

Legend:
Type in all cases: physicochemical
Details in all cases: unprocessed API vs. co-processed prodrug/HPMC batches from Example 1
[1] = Bulk density of powder
[2] = Tapped density of powder
[3] = Powder flow

Bulk Density [1]: 0.13 g/cc
Tapped Density [2]: 0.23 g/cc
Flow [3]: incomplete
Volumetric Flow [3]: incomplete
Compound: COc1cnc(-n2cnc(C)n2)c2c1c(C(=O)C(=O)N1CCN(C(=O)c3ccccc3)CC1)cn2COP(=O)(O)O [API, 1-benzoyl-4-[2-[4-methoxy-7-(3-methyl-1H-1,2,4-triazol-1-yl)-1-[(phosphonooxy)methyl]-1H-pyrrolo[2,3-c]pyridin-3-yl]-1,2-dioxoethyl]-piperazine]
